Reference: US10662210B2, “Compositions and methods comprising osmium for the treatment of cancers” (Massachusetts Institute of Technology, priority 2014, dated 2020)

Legend:
ER of A2780 cells = assay: Fluorescence microscopy of ER size (ER tracker Blue); type: cell-based, human; details: 10 μM
Experimental: This finding led to the investigation of the possibility that 4 may induce endoplasmic reticulum (ER) stress. Co-administration of 4 and salubrinal (10 μM), a known ER stress inhibitor, reduced the cytotoxicity of 4 in A2780 cells. […] To further validate the ER as the main target for 4, the expression of proteins related to the unfolded protein response (UPR) was monitored. […] ER membrane expansion is widely associated with ER stress. With this fact in mind the ER size of A2780 cells upon incubation with 4 were examined using fluorescence microscopy. Relative to untreated controls (FIG. 3B), cells exposed to 4 (10 μM) for 4 h had 25.1% larger ER coverage (FIG. 3C). […]
A2780 cells (1×10^4) were incubated with and without 4 (10 μM) for 6 h. […] Fluorescence imaging experiments were performed using a Zeiss Axiovert 200M inverted epifluorscence microscope with a Hamamatsu EM-CCD digital camera C9100 and a MS200 XY Piezo Z stage (Applied Scientific Instruments, Inc.). […] The exposure time for acquisition of fluorescence images was kept constant for each series of images at each channel. The ER and whole cell size was quantified using ImageJ (version 1.45, NIH). The size of the whole cell was measured by tracing the outline of the cell membrane in the DIC view. The size of the ER was measured by tracing the outline of emission observed from ER tracker Blue in the DAPI (blue) channel. […]

[1] = Stability of 2 by UV-vis spectroscopy and variable temperature 1H NMR; type: physicochemical
Description: The bidentate ligands used were 2,2′-bipyridine, 1,10-phenanthroline, 3,4,7,8-tetramethyl-1,10-phenanthroline, and 4,7-diphenyl-1,10-phenanthroline. The complexes were synthesized by reacting (Bu4N)[OsNCl4] with the appropriate ligand in acetone or dichloromethane. Characterization of 1-4 and the crystal structure of 4 are reported in Example 4. Prior to carrying out cellular studies, the stability of 2, taken as a representative member of the family, in phosphate buffered saline (PBS) and DMEM cell culture media was established by UV-vis spectroscopy. […] The water-octanol coefficient (log P) for each compound was also determined.

HMLER CSC-depleted = assay: Cytotoxicity against CSC-depleted breast cancer cells; type: cell-based
Description: (§1) Cancer relapse is strongly linked to the existence of CSCs. […] Conventional chemotherapy and radiotherapy are often ineffective against CSCs. Although current therapies effectively reduce tumor mass by destroying the bulk of cancer cells, they are unable to remove CSCs, which persist and generate new tumors, often of a far more aggressive nature. Therefore, in order to improve clinical outcomes, treatments must have the ability to kill the entirety of cancer cells, including CSCs. The osmium compound, described in Formula (I), wherein X^1, X^2, and X^3 were chloride ligands and the bidentate ligand was a 1,10-phenanthroline ligand, was able to kill breast cancer cells (HMLER) enriched with CSCs, 2.3-fold better than CSC-depleted breast cancer cells. […] The selectivity of the osmium compound can be seen in Table 2 as well as FIGS. 17A-B and 18.
(§2) The colorimetric MTT assay was used to determine the toxicity of the osmium complexes and cisplatin. Cells (2×10^3) were seeded in each well of a 96-well plate. After incubating the cells overnight, various concentrations of test compound (0.3-100 μM) were added and incubated for 72 h (total volume 200 μL). The test compounds were prepared as 10 mM solutions in DMSO and diluted using media. The final concentration of DMSO in each well was 0.5% and this amount was present in the untreated control as well. Cisplatin was prepared as a 5 mM solution in PBS and diluted further using media. After 72 h, the medium was removed, 200 μL of a 0.4 mg/mL solution of MTT in DMEM or RPMI was added, and the plate was incubated for an additional 1-2 h. The DMEM/MTT or RPMI/MTT mixture was aspirated and 200 μL of DMSO was added to dissolve the resulting purple formazan crystals. The absorbance of the solution wells was read at 550 nm. Absorbance values were normalized to DMSO-containing control wells and plotted as concentration of test compound versus % cell viability. IC50 values were interpolated from the resulting dose dependent curves. The reported IC50 values are the average from at least three independent experiments, each of which consisted of six replicates per concentration level.

HMLER^tax CSC-enriched = assay: Cytotoxicity against CSC-enriched breast cancer cells; type: cell-based
Description: as §1, §2

| Compound | larger ER coverage relative to untreated controls (ER of A2780 cells; 4 h) [%] | ER size relative to the whole cell (ER of A2780 cells; treated samples) | stability in phosphate buffered saline (PBS) and DMEM cell culture media ([1]; UV-vis spectroscopy) | thermal stability ([1]; variable temperature 1H NMR spectroscopy) | IC50 (HMLER CSC-depleted) [µM] | IC50 (HMLER^tax CSC-enriched) [µM] | HMLER^tax selectivity (HMLER^tax CSC-enriched; CSC-enriched vs CSC-depleted) |
| --- | --- | --- | --- | --- | --- | --- | --- |
| [N]#[Os]1([Cl])([Cl])([Cl])[N]2C=CC(c3ccccc3)=c3ccc4c(c32)[N]1C=CC=4c1ccccc1 [Complex 4, OsN(4,7-diphenyl-1,10-phenanthroline)Cl3] | 25.1 | about 55% | – | – | – | – | – |
| [N]#[Os]1([Cl])([Cl])([Cl])[N]2C=CC=c3ccc4c(c32)[N]1C=CC=4 [Complex 2, OsN(1,10-phenanthroline)Cl3] | – | – | established | demonstrated | 11.2 | 4.91 | 2.31 |
